Read-outs that look alike come from different tables or passages of the source.
What was measured:
wild type NTRK1 enzyme = biological target: T1, wild type NTRK1 enzyme (Homo sapiens, UniProt P04629); assay: NTRK1 Wild Type Assay at 1 mM ATP; assay type: biochemical; conditions: 1 mM ATP; read-out: Enz NTRK1 IC50
T1 construct: purchased BPS Bioscience 40280
Procedure: NTRK1 Wild Type Assay at 1 mM ATP
The reaction was stopped by the addition of 70 μL of Stop buffer (100 mM HEPES pH 7.5, 0.015% Brij 35, 35 mM EDTA and 0.2% of Coating Reagent 3 (Caliper Lifesciences)). The plate was then read on a Caliper EZReader 2 (protocol settings: −1.7 psi, upstream voltage −500, downstream voltage −3000, post sample sip 35s).

[1] = tested on: KM12 wild type colon carcinoma cell line harboring the TPM3-NTRK1 fusion protein; assay: NTRK wild type cellular assay (CellTiter-Glo growth inhibition); assay type: cell-based; conditions: 72 hr, CellTiter-Glo, read-out: KM12 (WT) IC50
Summary of the method: (§1)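 KM12 (TPM3-NTRK1 fusion) or KM12 Cliff (G595R) cells at 1000 cells/well in 10% FBS media were dosed with compounds at varying concentrations in duplicate after overnight plating.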

[2] = tested on: KM12 Cliff (G595R) cell line; assay: NTRK G595R mutant cellular assay (CellTiter-Glo growth inhibition); assay type: cell-based; conditions: 72 hr, CellTiter-Glo
Summary of the method: as §1

T1 sequence (P04629 440-796 limits assumed): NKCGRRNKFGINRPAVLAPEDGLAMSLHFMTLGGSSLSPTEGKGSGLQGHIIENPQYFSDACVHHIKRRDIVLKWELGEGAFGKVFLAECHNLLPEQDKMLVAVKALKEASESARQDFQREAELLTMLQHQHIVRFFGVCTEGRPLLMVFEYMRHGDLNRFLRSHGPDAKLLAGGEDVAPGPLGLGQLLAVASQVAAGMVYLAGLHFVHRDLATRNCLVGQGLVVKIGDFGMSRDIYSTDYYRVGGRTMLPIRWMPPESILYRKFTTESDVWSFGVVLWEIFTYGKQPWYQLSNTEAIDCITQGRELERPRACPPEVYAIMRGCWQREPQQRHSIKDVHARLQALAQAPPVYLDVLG

Row | Structure (SMILES) | IC50 (wild type NTRK1 enzyme) [µM] | IC50 ([1]; Homo sapiens, KM12, 72 h) [µM] | IC50 ([2]; Homo sapiens, KM12, 72 h) [µM] | IC50 [1] [µM] | IC50 [2] [µM]
1 | O=C(NCc1cc(F)ccc1F)c1n[nH]c2ncnc(N[C@@H]3CC[C@@H](F)[C@H]3O)c12 (relative stereo) [Compound 19] | > 1 | > 1 | > 1 | – | –
2 | CN(Cc1cccnc1F)C(=O)c1n[nH]c2ncnc(N[C@@H]3CC[C@@H](O)[C@H]3O)c12 [Compound 133] | 0.1 to 1 | – | – | 0.1 to 1 | 0.1 to 1
3 | O=C(NCc1cc(F)ccc1F)c1n[nH]c2ncnc(N[C@H]3[C@H](O)[C@H](O)[C@@H]4C[C@@H]43)c12 [Compound 25] | 0.01 to 0.1 | 0.01 to 0.1 | 0.1 to 1 | – | –
4 | O=C(c1n[nH]c2ncnc(N[C@@H]3C=C[C@@H](O)[C@H]3O)c12)N1C[C@@H](F)C[C@@H]1c1cc(F)ccc1F [Compound 170] | < 0.01 | – | – | < 0.01 | < 0.01
5 | N#C[C@H]1C[C@@H](O)[C@H](Nc2ncnc3[nH]nc(C(=O)N4C[C@@H](F)C[C@@H]4c4cc(F)cc(F)c4F)c23)C1 [Compound 212] | < 0.01 | – | – | < 0.01 | < 0.01
6 | O=C(NCc1cc(F)ccc1F)c1n[nH]c2ncnc(NC3CC(F)CC3O)c12 (stereo not drawn) [Compound 14] | 0.1 to 1 | – | – | 0.1 to 1 | 0.1 to 1
7 | O=C(c1n[nH]c2ncnc(N[C@@H]3CC[C@@H](O)[C@H]3O)c12)N1C[C@@H](F)C[C@@H]1c1cc(F)cc(F)c1F [Compound 206] | < 0.01 | – | – | < 0.01 | < 0.01
8 | CN(C(=O)c1n[nH]c2ncnc(NC3CC(C(F)F)CC3O)c12)C(CO)c1cc(F)ccc1F (stereo not drawn) [Compound 180] | < 0.01 | – | – | < 0.01 | < 0.01
9 | O=C(c1n[nH]c2ncnc(N[C@@H]3CCC[C@H]3O)c12)N1C[C@@H](F)C[C@@H]1c1cc(F)cnc1Cl [Compound 177] | < 0.01 | < 0.01 | < 0.01 | – | –
10 | O=C(c1n[nH]c2ncnc(N[C@H]3[C@H](O)[C@H](O)[C@@H]4C[C@@H]43)c12)N1C[C@@H](F)C[C@@H]1c1cccc(F)c1 [Compound 122] | < 0.01 | < 0.01 | < 0.01 | – | –
11 | CN(Cc1cc(Cl)ccc1C#N)C(=O)c1n[nH]c2ncnc(N[C@@H]3CC[C@@H](O)[C@H]3O)c12 [Compound 156, N-(5-chloro-2-cyanobenzyl)-4-(((1R,2S,3R)-2,3-dihydroxycyclopentyl)amino)-N-methyl-1H-pyrazolo[3,4-d]pyrimidine-3-carboxamide] | 0.01 to 0.1 | 0.01 to 0.1 | < 0.01 | – | –
12 | CN(Cc1cc(Cl)ccc1Br)C(=O)c1n[nH]c2ncnc(N[C@@H]3CCC[C@@H](O)[C@H]3O)c12 [Compound 167] | < 0.01 | – | – | < 0.01 | < 0.01
13 | N#Cc1cc(F)cc(C2CC(F)CN2C(=O)c2n[nH]c3ncnc(NC4COCCC4O)c23)c1 (stereo not drawn) [Compound 182] | < 0.01 | – | – | < 0.01 | 0.01 to 0.1
14 | N#Cc1cc(F)cc([C@H]2C[C@H](F)CN2C(=O)c2n[nH]c3ncnc(N[C@H]4[C@H](O)[C@H](O)[C@@H]5C[C@@H]54)c23)c1 [Compound 129] | < 0.01 | 0.01 to 0.1 | 0.01 to 0.1 | – | –
15 | O=C(c1n[nH]c2ncnc(N[C@@H]3CCOC[C@H]3O)c12)N1C[C@@H](F)C[C@@H]1c1cc(F)ccc1Cl [Compound 196] | < 0.01 | < 0.01 | < 0.01 | – | –
16 | O=C(c1n[nH]c2ncnc(N[C@@H]3CCOC[C@H]3O)c12)N1C[C@@H](F)C[C@@H]1c1ccccc1 [Compound 145] | 0.1 to 1 | 0.01 to 0.1 | 0.1 to 1 | – | –

Source: patent US11046697B2, “Compounds and compositions useful for treating disorders related to NTRK” (BLUEPRINT MEDICINES CORPORATION, priority 2015, dated 2021)
